Data from patent US7795390B2, “Biological substance nesfatin and its related substances and uses thereof” (Teijin Pharma Limited, priority 2005, dated 2010).

Columns and labels:
ICR mice = assay: Intraperitoneal administration of partial peptides of nesfatin-1 / nesfatin-1M30 / NUCB1-M30 to ICR mice, food intake; format: in vivo, mouse; details: 0-3 hours
Description: Each peptide of nesfatin-1N23, nesfatin-1M30 and nesfatin-1C29 used was a synthetic peptide of which production was referred to Biologica Co., Ltd. and was purified by HPLC to a purity of 95% or higher. Each peptide was prepared in physiological saline so as to contain 50 nmol per 200 μl, which was used as the sample, and as the control sample physiological saline (Vehicle) alone was used. Using a tuberculin syringe equipped with a 25G needle, 200 μl each of the samples was administered once into the abdominal cavity of each mouse (5 animals per group), and the time of administration was immediately before the start (6 p.m.) of the dark period. Mice used were male ICR mice (Nippon SLC) and the housing condition was similar to those in Working Example 18.
Each mouse that received administration was placed in an individual cage, and during 0-3 hours after the administration the weight decreased of the pellet food was measured to determine the amount of food intake. For testing of significant difference, analysis of variance was used.
Each peptide was prepared in physiological saline so as to contain 10 pmol per 100 μl, which was used as the sample for administration, and as the control sample physiological saline (Vehicle) alone was used. The physiological saline as the control and the peptide samples prepared were intraperitoneally administered at 100 μl per mouse (6 animals per group). Mice used were male ICR mice (Nippon SLC) and the housing condition and the experimental condition were similar to those in Working Example 18.
Each of the prepared human nesfatin-1M30 and mouse NUCB1-M30 was prepared in physiological saline so as to contain 10 pmol per 100 μl, which was used as the sample for administration.
The physiological saline as the control and the peptide sample prepared were intraperitoneally administered at 100 μl per mouse (n=6 per group). Mice used were male ICR mice (Nippon SLC) and the housing condition and the experimental condition were similar to those in Working Example 18.

Wistar rats = assay: Administration of nesfatin-1, nesfatin-2, nesfatin-3, nesfatin-2/3 into the third ventricle, amount of food intake; format: in vivo, rat; details: for amount of food intake: 25 pmol into the third ventricle before dark period, 0-1 hr and 1-3 hr, vs control
Description: Samples used for intracerebral administration were PBS alone (vehicle group), or nesfatin-1, nesfatin-2, nesfatin-3 or nesfatin-2/3 prepared in Working Example 10 each dissolved in PBS, and 25 pmol was administered per individual into the third ventricle immediately before the dark period. Rats used were Wistar rats (purchased from Nippon SLC) and were housed as in Working Example 6, and among 8-9 week-old male Wistar rats, those individuals weighing 200-250 g were selected and used (N=5). The technique of intraventricular administration and the measurement of the amount of food intake in rats were carried out in a method similar to those in Working Example 6. In the measurement of the amount of food intake, the reduced amount of food at 1 hour after administration (0-1 hr) and 2 hours after administration (1-3 hrs) was determined as food intake.
In the same condition above, 1, 5 or 25 pmol of nesfatin-1 as a sample was administered per rat individual into the third ventricle immediately before the dark period. In this experiment, the amount of food intake was determined at 1 hour after administration (0-1 hr).
The experimental condition was similar to that in Working Example 12, and 5 pmol of nesfatin-1 was administered into the third ventricle of the rat brain immediately before the start of the dark period, the amount decreased of the food (the amount of food intake) during 1 hour immediately after administration (0-1 hr), during 2 hours from 1 hour after the administration (1-3 hr), during 3 hours from 3 hours after the administration (3-6 hr), and during 6 hours from 6 hours after the administration (6-12 hr) was measured as the amount of food intake. As the control group, the amount of food intake by individuals that received physiological saline alone was measured.
The experimental condition was similar to that in Working Example 12, and for a group that received 5 pmol of nesfatin-1 alone into the third ventricle of the rat brain immediately before the start of the dark period and a group that received 5 pmol of nesfatin-1 and 8 μg of anti-nesfatin-1 antibody (nesfatin-1 IgG), the amount of food intake for 1 hour after administration was measured and compared to that for the control group (physiological saline alone was administered). Also, for a group that received only leptin (Rat leptin: R & D Systems, 598-LP-01M) (1 μg) which is known to have an activity of suppressing food intake by intraventricular administration and a group that received leptin and anti-nesfatin-1 antibody, its effect on food intake was also studied.

[1] = 10 pmol per 100 μl ip, Working Example 23, vs Vehicle
[2] = 50 nmol per 200 μl ip, vs Vehicle
[3] = 10 pmol per 100 μl ip, partial peptides of nesfatin-1M30, vs saline

nesfatin-1M30: 30-amino acid partial peptide of mouse nesfatin-1 (SEQ ID NO: 41) (PDTGLYYDEYLKQVIEVLETDPHFREKLQK; listed as Mus musculus)
amount of food intake (ICR mice; [1]): significant effect of suppressing food intake | amount of food intake (ICR mice; [2]): significant decrease

nesfatin-1M16: 16-amino acid partial peptide of mouse nesfatin-1M30 (SEQ ID NO: 71) (PDTGLYYDEYLKQVIE; listed as Mus musculus)
amount of food intake (ICR mice; [3]): significant effect of suppressing food intake

mouse NUCB1-M30: site of mouse NUCB1 corresponding to nesfatin-1M30 (SEQ ID NO: 103) (PDTGLYYHRYLQEVINVLETDGHFREKLQA; listed as Mus musculus)
amount of food intake (ICR mice; [1]): significant effect of suppressing food intake

N-LysGlnValIleGluValLeuGluThrAsp-C (KQVIEVLETD; listed as Mus musculus) [nesfatin-1M10M]
amount of food intake (ICR mice; [3]): significant effect of suppressing food intake

nesfatin-1N23: amino acid numbers 1 to 23 of mouse nesfatin-1 (SEQ ID NO: 42) (VPIDVDKTKVHNTEPVENARIEP; listed as Mus musculus)
amount of food intake (ICR mice; [2]): no significant decrease or enhancement in the amount of food intake

human nesfatin-1M30: human nesfatin-1M30 (SEQ ID NO: 39), chemical synthesis (PDTGLYYDEYLKQVIDVLETDKHFREKLQK; listed as Homo sapiens)
amount of food intake (ICR mice; [1]): significant effect of suppressing food intake

nesfatin-1C29: amino acid numbers 54 to 82 of mouse nesfatin-1 (SEQ ID NO: 43) (ADIEEIRSGRLSQELDLVSHKVRTRLDEL; listed as Mus musculus)
amount of food intake (ICR mice; [2]): no significant decrease or enhancement in the amount of food intake

N-ValLeuGluThrAspProHisPheArgGluLysLeuGlnLys-C (VLETDPHFREKLQK; listed as Mus musculus) [nesfatin-1M14]
amount of food intake (ICR mice; [3]): significant effect of suppressing food intake

B1: nesfatin-2/3: portion of the sequence consisting of nesfatin-2 and nesfatin-3 (SEQ ID NO: 47), cell-free protein synthesis (protein, listed as Rattus norvegicus)
chain: QEVGRLRMLIKAKLDALQDTGMNHHLLLKQFEHLNHQNPDTFESKDLDMLIKAATADLEQYDRTRHEEFKKYEMMKEHERREYLKTLSEEKRKEEEAKFAEMKRKHEDHPKVNHPGSKDQLKEVWEETDGLDPNDFDPKTFFKLHDVNNDGFLDEQELEALFTKELDKVYNPQNAEDDMIEMEEERLRMREHVMNEIDNNKDRLVTLEEFLRATEKKEFLEPDSWETLDQQQLFTEEELKEYESIIAIQESELKKKADELQKQKEELQRQHDHLEAQKQEYQQAVQQLEQKKFQQGIAPSGPAGELKFEPHT
amount of food intake (Wistar rats): did not exhibit any significant changes in the amount of food intake

B2: nesfatin-2: 79-residue peptide, amino acid Nos. 109 to 187 of nesfatin (SEQ ID NO: 16) (peptide, listed as Rattus norvegicus)
chain: QEVGRLRMLIKAKLDALQDTGMNHHLLLKQFEHLNHQNPDTFESKDLDMLIKAATADLEQYDRTRHEEFKKYEMMKEHE
amount of food intake (Wistar rats): did not exhibit any significant changes in the amount of food intake

B3: nesfatin-3: 231 residues, amino acid Nos. 190 to 420 of nesfatin (SEQ ID NO: 17), cell-free protein synthesis, Met added (protein, listed as Rattus norvegicus)
chain: EYLKTLSEEKRKEEEAKFAEMKRKHEDHPKVNHPGSKDQLKEVWEETDGLDPNDFDPKTFFKLHDVNNDGFLDEQELEALFTKELDKVYNPQNAEDDMIEMEEERLRMREHVMNEIDNNKDRLVTLEEFLRATEKKEFLEPDSWETLDQQQLFTEEELKEYESIIAIQESELKKKADELQKQKEELQRQHDHLEAQKQEYQQAVQQLEQKKFQQGIAPSGPAGELKFEPHT
modifications: N-terminal Met added
amount of food intake (Wistar rats): did not exhibit any significant changes in the amount of food intake

B4: leptin: Rat leptin: R & D Systems, 598-LP-01M; known to suppress food intake by intraventricular administration (protein)
chain: VPIHKVQDDTKTLIKTIVTRINDISHTQSVSARQRVTGLDFIPGLHPILSLSKMDQTLAVYQQILTSLPSQNVLQIAHDLENLRDLLHLLAFSKSCSLPQTRGLQKPESLDGVLEASLYSTEVVALSRLQGSLQDILQQLDLSPEC
amount of food intake for 1 hour after administration (Wistar rats; given alone into the third ventricle (nesfatin-1 5 pmol; leptin 1 μg), vs saline control): decreased
